Earlier results as cited in US10449180B2, “Macrolide particulates, methods for preparation, and medical devices associated therewith” (Surmodics, Inc., priority 2013, dated 2019).

CO[C@H]1C[C@@H]2CC[C@@H](C)[C@@](O)(O2)C(=O)C(=O)N2CCCC[C@H]2C(=O)O[C@H]([C@H](C)C[C@@H]2CC[C@@H](O)[C@H](OC)C2)CC(=O)[C@H](C)/C=C(\C)[C@@H](O)[C@@H](OC)C(=O)[C@H](C)C[C@H](C)/C=C/C=C/C=C/1C [Rapamycin, rapamycin]
solubility in N,N-dimethylformamide (N,N-dimethylformamide): soluble | solubility in acetone (acetone): soluble | solubility in ether (ether): soluble | solubility in water (water): insoluble
